Test results published in patent US10899759B2, “Positive allosteric modulators of the muscarinic acetylcholine receptor M1” (Vanderbilt University, priority 2016, dated 2021).
Where two headings read alike, the source gives them in different places.

Target: T1, human mAChR M1 (Homo sapiens, UniProt P11229)
T1 construct: host or cells: CHO-K1
T1 sequence (P11229 1-460): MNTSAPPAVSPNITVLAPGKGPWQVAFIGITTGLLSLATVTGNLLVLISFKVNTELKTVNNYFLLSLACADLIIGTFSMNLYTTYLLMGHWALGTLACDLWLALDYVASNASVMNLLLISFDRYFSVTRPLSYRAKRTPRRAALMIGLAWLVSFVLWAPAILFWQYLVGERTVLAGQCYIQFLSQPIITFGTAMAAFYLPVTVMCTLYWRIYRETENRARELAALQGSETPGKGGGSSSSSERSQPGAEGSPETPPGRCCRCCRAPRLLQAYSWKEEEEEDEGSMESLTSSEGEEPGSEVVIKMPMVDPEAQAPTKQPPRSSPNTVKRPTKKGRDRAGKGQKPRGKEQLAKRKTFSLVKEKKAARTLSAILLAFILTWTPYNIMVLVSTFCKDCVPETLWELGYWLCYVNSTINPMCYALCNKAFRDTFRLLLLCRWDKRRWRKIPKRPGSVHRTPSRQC
Test: mAChR M1 cell-based functional assay (calcium mobilization, Fluo-4, FDSS)
Conditions: for EC50: positive allosteric modulator activity as increase in the EC20 acetylcholine response
Procedure, shortened: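 CHO-K1 cells stably expressing muscarinic receptor, loaded with Fluo-4; 11-point 1:3 compound series added and calcium flux read over 300 s at 1 Hz. Agonism from direct calcium rise, PAM activity as potentiation of EC20 acetylcholine, antagonism as decrease of EC80 acetylcholine; four-parameter logistic fits.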

[1] = CHO-K1 cells stably expressing hM1, EC20 acetylcholine response, read-out: Human M1 Emax
[2] = CHO-K1 cells stably expressing hM1

SMILES | Emax [1] [%] | EC50 [2] [nM] | Emax (CHO-K1, read-out: Human M1 Emax) [%]
Cn1ncc2c(Cc3ccc(-c4cscn4)cc3)cc(C(=O)N[C@H]3CC[C@@H]3O)nc21 [Compound 31, N-[(1S,2S)-2-hydroxycyclobutyl]-1-methyl-4-[(4-thiazol-4-ylphenyl)methyl]pyrazolo[3,4-b]pyridine-6-carboxamide] | 79.7 | 3830 | –
Cn1cc(-c2ccc(Cc3cc(C(=O)NC4CC(F)C4)nc4sccc34)cn2)cn1 (stereo not drawn) [Compound 125, N-(3-fluorocyclobutyl)-4-[[6-(1-methylpyrazol-4-yl)-3-pyridyl]methyl]thieno[2,3-b]pyridine-6-carboxamide] | 58.6 | 940 | –
CC1CC(NC(=O)c2cc(Cc3ccc(-c4ccn(C)n4)nc3)c3ccn(C)c3n2)CC(C)O1 (stereo not drawn) [Compound 148, N-(2,6-dimethyltetrahydropyran-4-yl)-1-methyl-4-[[6-(1-methylpyrazol-3-yl)-3-pyridyl]methyl]pyrrolo[2,3-b]pyridine-6-carboxamide] | 82.4 | 940 | –
Cn1ccc2c(Cc3ccc(-c4nccs4)cc3)cc(C(=O)NC3CCOCC3(C)C)nc21 (stereo not drawn) [Compound 67] | 61.2 | 1390 | –
Cc1nc(-c2ccc(Cc3cc(C(=O)N[C@@H]4CCOC4)nc4sccc34)cc2)co1 [Compound 137, 4-[[4-(2-methyloxazol-4-yl)phenyl]methyl]-N-[(3R)-tetrahydrofuran-3-yl]thieno[2,3-b]pyridine-6-carboxamide] | 59.5 | 1900 | –
Cn1ccc(-c2ccc(Cc3cc(C(=O)N[C@@H]4CC[C@H]4O)nc4c3ccn4C)cc2)n1 [Compound 41, N-[(1R,2R)-2-hydroxycyclobutyl]-1-methy1-4-[[4-(1-methylpyrazol-3-yl)phenyl]methyl]pyrrolo[2,3-b]pyridine-6-carboxamide] | 78 | 1050 | –
Cn1cc(-c2ccc(Cc3cc(C(=O)NCC4CCOC4)nc4sccc34)cn2)cn1 (stereo not drawn) [Compound 122, 4-[[6-(1-methylpyrazol-4-yl)-3-pyridyl]methyl]-N-(tetrahydrofuran-3-ylmethyl)thieno[2,3-b]pyridine-6-carboxamide] | 57.5 | 700 | –
CC1CC(NC(=O)c2cc(Cc3ccc(-c4cscn4)cc3)c3ccn(C)c3n2)CC(C)O1 (stereo not drawn) [Compound 24, N-(2,6-dimethyltetrahydropyran-4-yl)-1-methyl-4-[(4-thiazol-4-ylphenyl)methyl]pyrrolo[2,3-b]pyridine-6-carboxamide] | 65.3 | 1110 | –
Cn1ccc(-c2ccc(Cc3cc(C(=O)NC4CC5(COC5)C4)nc4c3ccn4C)cc2)n1 [Compound 40, 1-methyl-4-[[4-(1-methylpyrazol-3-yl)phenyl]methyl]-N-(2-oxaspiro[3.3]heptan-6-yl)pyrrolo[2,3-b]pyridine-6-carboxamide] | 74 | 750 | –
Cc1nc(-c2ccc(Cc3cc(C(=O)N[C@H]4CC[C@@H]4O)nc4c3ccn4C)cc2)co1 [Compound 57, N-[(1S,2S)-2-hydroxycyclobutyl]-1-methy1-4-[[4-(2-methyloxazol-4-yl)phenyl]methyl]pyrrolo[2,3-b]pyridine-6-carboxamide] | 83.6 | 840 | –
Cn1ccc(-c2ccc(Cc3cc(C(=O)NC4CCOCC4)nc4sccc34)cc2)n1 [Compound 87, 4-[[4-(1-methylpyrazol-3-yl)phenyl]methyl]-N-tetrahydropyran-4-yl-thieno[2,3-b]pyridine-6-carboxamide] | 60.4 | 2130 | –
Cn1ccc2c(Cc3ccc(-c4cscn4)cc3)cc(C(=O)N[C@H]3CCOC3)nc21 [Compound 33, 1-methyl-N-[(3S)-tetrahydrofuran-3-yl]-4-[(4-thiazol-4-ylphenyl)methyl]pyrrolo[2,3-b]pyridine-6-carboxamide] | 50.6 | 2910 | –
Cn1ccc2c(Cc3ccc(-c4nccs4)cc3)cc(C(=O)N[C@H]3CC[C@@H]3O)nc21 [Compound 63, N-[(1S,2S)-2-hydroxycyclobutyl]-1-methyl-4-[(4-thiazol-2-ylphenyl)methyl]pyrrolo[2,3-b]pyridine-6-carboxamide] | 60.4 | 1500 | –
Cn1ccc2c(Cc3ccc(-c4cscn4)cc3)cc(C(=O)N[C@H]3CC[C@@H]3O)nc21 [Compound 3, N-[(1S,2S)-2-hydroxycyclobutyl]-1-methyl-4-[(4-thiazol-4-ylphenyl)methyl]pyrrolo[2,3-b]pyridine-6-carboxamide] | – | 360 | 70.4

Second part, led by results:

Emax [1] [%] | EC50 [2] [nM] | SMILES | Emax (CHO-K1, read-out: Human M1 Emax) [%]
77.8 | 660 | Cn1ncc2c(Cc3ccc(-c4cscn4)cc3)cc(C(=O)NC3CC4(COC4)C3)nc21 [Compound 30, 1-methyl-N-(2-oxaspiro[3.3]heptan-6-yl)-4-[(4-thiazol-4-ylphenyl)methyl]pyrazolo[3,4-b]pyridine-6-carboxamide] | –
63.5 | 480 | COCC(C)NC(=O)c1cc(Cc2ccc(-c3ccn(C)n3)cc2)c2ccsc2n1 (stereo not drawn) [Compound 100, N-(2-methoxy-1-methyl-ethyl)-4-[[4-(1-methylpyrazol-3-yl)phenyl]methyl]thieno[2,3-b]pyridine-6-carboxamide] | –
70.7 | 410 | CCn1ccc2c(Cc3ccc(-n4cccn4)cc3)cc(C(=O)N[C@H]3CC[C@@H]3O)nc21 [Compound 13, 1-ethyl-N-[(1S,2S)-2-hydroxycyclobutyl]-4-[(4-pyrazol-1-ylphenyl)methyl]pyrrolo[2,3-b]pyridine-6-carboxamide] | –
73.1 | 180 | Cn1ccc2c(Cc3ccc(-n4cccn4)cc3)cc(C(=O)NC3CCOCC3)nc21 [Compound 18, 1-methyl-4-[(4-pyrazol-1-ylphenyl)methyl]-N-tetrahydropyran-4-yl-pyrrolo[2,3-b]pyridine-6-carboxamide] | –
77.6 | 470 | Cn1ccc(-c2ccc(Cc3cc(C(=O)NC4CCOCC4)nc4c3ccn4C)cn2)n1 [Compound 145, 1-methyl-4-[[6-(1-methylpyrazol-3-yl)-3-pyridyl]methyl]-N-tetrahydropyran-4-yl-pyrrolo[2,3-b]pyridine-6-carboxamide] | –
37.9 | 20 | Cn1ccc(-c2ccc(Cc3cc(C(=O)NC4CCOCC4)nc4sccc34)cn2)n1 [Compound 102, 4-[[6-(1-methylpyrazol-3-yl)-3-pyridyl]methyl]-N-tetrahydropyran-4-yl-thieno[2,3-b]pyridine-6-carboxamide] | –
54.8 | 60 | Cn1cc(-c2ccc(Cc3cc(C(=O)NCC4CCOCC4)nc4sccc34)cn2)cn1 [Compound 119, 4-[[6-(1-methylpyrazol-4-yl)-3-pyridyl]methyl]-N-(tetrahydropyran-4-ylmethyl)thieno[2,3-b]pyridine-6-carboxamide] | –
49.6 | 610 | Cn1ccc(-c2ccc(Cc3cc(C(=O)NCC4CCOCC4)nc4c3ccn4C)cc2)n1 [Compound 43, 1-methyl-4-[[4-(1-methylpyrazol-3-yl)phenyl]methyl]-N-(tetrahydropyran-4-ylmethyl)pyrrolo[2,3-b]pyridine-6-carboxamide] | –
72.3 | 430 | O=C(NC1CC2(COC2)C1)c1cc(Cc2ccc(-n3cccn3)cc2)c2ccsc2n1 [Compound 80, N-(2-oxaspiro[3.3]heptan-6-yl)-4-[(4-pyrazol-1-ylphenyl)methyl]thieno[2,3-b]pyridine-6-carboxamide] | –
75.1 | 190 | Cn1ccc(-c2ccc(Cc3cc(C(=O)N[C@H]4CCC[C@@H]4O)nc4c3ccn4C)cn2)n1 [Compound 153, N-[(1S,2S)-2-hydroxycyclopentyl]-1-methyl-4-[[6-(1-methylpyrazol-3-yl)-3-pyridyl]methyl]pyrrolo[2,3-b]pyridine-6-carboxamide] | –
72.3 | 200 | CCn1ccc2c(Cc3ccc(-n4cccn4)cc3)cc(C(=O)NC3CC4(COC4)C3)nc21 [Compound 12, 1-ethyl-N-(2-oxaspiro[3.3]heptan-6-yl)-4-[(4-pyrazol-1-ylphenyl)methyl]pyrrolo[2,3-b]pyridine-6-carboxamide] | –
52.2 | 70 | CC1COCCC1NC(=O)c1cc(Cc2ccc(-c3cnn(C)c3)nc2)c2ccsc2n1 (stereo not drawn) [Compound 118, 4-[[6-(1-methylpyrazol-4-yl)-3-pyridyl]methyl]-N-(3-methyltetrahydropyran-4-yl)thieno[2,3-b]pyridine-6-carboxamide] | –
57.7 | 540 | Cc1nc(-c2ccc(Cc3cc(C(=O)NCC4CCOCC4)nc4sccc34)cc2)co1 [Compound 135] | –
69.4 | 190 | O=C(NC1COC1)c1cc(Cc2ccc(-n3cccn3)cc2)c2ccsc2n1 [Compound 81, N-(oxetan-3-yl)-4-[(4-pyrazol-1-ylphenyl)methyl]thieno[2,3-b]pyridine-6-carboxamide] | –
47.8 | 10 | O=C(N[C@H]1CCOC[C@@H]1O)c1cc(Cc2ccc(-n3cccn3)cc2)c2ccsc2n1 [Compound 70] | –
60.7 | 490 | CC1COCCC1NC(=O)c1cc(Cc2ccc(-n3cccn3)cc2)c2ccsc2n1 (stereo not drawn) [Compound 75] | –
